According to publication PMC5629628, “The development of activatable lytic peptides for targeting triple negative breast cancer” (Cell Death Discovery, 2017):
Read-outs that look alike come from different tables or passages of the source. Non-standard residues stand in square brackets, D forms with d. Residues, ends and D or L forms follow the SMILES beside them. Aib = CC(C)(N)C(=O)O; Ahx = NCCCCCC(=O)O; βAla = NCCC(=O)O

Experiments:
HEK293T = experiment: Cell viability, non-tumourigenic HEK293T; assay type: cell-based; settings: 24 h treatment
nude mice = experiment: Acute toxicity in mice; assay type: in vivo; settings: 40 mg/kg (200 μl, 4 mg/ml) intravenous, n=3 per group
Description: (§1) In acute toxicity studies, 12 mice were divided into four groups (n=3 for each group) and administered via intravenous injection with peptide (e8-Uk14, e7-Ur11) at the dose of 20 or 40 mg/kg. In chronic renal toxicity studies, mice were administered via intravenous injection with peptide (e8-Uk14, e7-Ur11) at the dose of 20 mg/kg every other day over a periods of 2 weeks.

MDA-MB-231 tumour = experiment: In vivo fluorescence imaging and tissue distribution; parameters: species or system mice; settings: Cy5-labelled peptides, n=2; for tumour accumulation (in vivo fluorescence imaging): 100 μl 50 μM, tail vein, MDA-MB-231 tumour-bearing mice
Description: Four-week-old nude mice were purchased from the Vital River (Beijing, China) and allowed to grow for further two weeks. Approximately 1×10^6 MDA-MB-231 cells were injected into the mammary fat pads of female mice in a vehicle of 4 mg/ml Matrigel (Becton Dickinson and Co., New York, NY, USA). One week later, mice bearing tumours around 50 mm^3 in volume were randomly divided into groups for subsequent experiments.
For optical imaging, mice were anesthetized with isoflurane. Cy5-labelled peptides were injected intravenously at a dose of 100 μl, 50 μM. At each time point, mice were again anesthetized and imaged using IVIS Spectrum Pre-clinical In Vivo Imaging System (640 nm/680 nm). Fluorescence in manually set regions of interest was quantified by Living Image. The contrast ratio was calculated by dividing the tumour fluorescence by the chest and abdomen fluorescence.

mouse red blood cells = experiment: Haemolytic activity; assay type: cell-based
Description: Fresh mouse red blood cells were collected and centrifuged at 800 rpm for 5 min. The erythrocytes were washed and re suspended in 0.9% NaCl to 10^8/ml. A serial dilution of peptides were added and incubate at 310 K. After 1 h incubation, erythrocytes were centrifuged and the release of hemoglobin was monitored by measuring the absorbance of supernatant at 570 nm by a microplate reader (PerkinElmer).

kidney = experiment: Chronic renal toxicity, kidney haematoxylin-eosin staining; assay type: in vivo, mice; settings: 20 mg/kg i.v. every other day over 2 weeks
Description: as §1

MDA-MB-231 [1] = experiment: MTT cell viability, MDA-MB-231; assay type: cell-based, human; settings: for IC50: 5% FBS medium, 310 K, mean (standard deviation)
MDA-MB-231 [2] = experiment: Cell viability with or without caspase inhibitor Z-VAD-FMK; assay type: cell-based, human
SK-OV-3 = settings: read-out: IC50 (μM), SK-OV-3; MTT assay, 24 h treatment, 5% FBS medium, 310 K; mean (standard deviation)
Description: (§2) 100 μl of 4×10^4/ml cell suspension (MDA-MB-231, MCF-7, HeLa, SK-OV-3) was placed in each well of the 96-well culture plate and allowed to grow in dulbecco's modified eagle medium or Leibovitz medium (L-15) supplemented with 10% fetal bovine serum overnight. The cells were incubated with serial dilution of compounds at 310 K in 5% fetal bovine serum containing media for 24 h supplied with 5% CO2. At the end of the compounds exposure, 20 μl of 3-(4,5-dimethyl-2-thiazolyl)-2,5-diphenyl-2-H-tetrazolium bromide reagent was added and incubated at 310 K for 4 h. The absorbance of formazan product was measured at 490 nm by a microplate reader (PerkinElmer, Waltham, MA, USA). Cells without peptide were treated as control. *P<0.05, **P<0.01, ***P<0.001 compared with vehicle-treated cells. In Z-VAD-FMK assays, *P<0.05, **P<0.01, ***P<0.001 compared with cells without treatment of Z-VAD-FMK.

HeLa = settings: read-out: IC50 (μM), HeLa; MTT assay, 24 h treatment, 5% FBS medium, 310 K; mean (standard deviation)
Description: as §2

MCF-7 = settings: read-out: IC50 (μM), MCF-7; MTT assay, 24 h treatment, 5% FBS medium, 310 K; mean (standard deviation)
Description: as §2

[3] = organs excised 6 h after injection
[4] = mouse red blood cells 10^8/ml in 0.9% NaCl, 1 h, 310 K, absorbance 570 nm

CC(=O)N[C@H](Cc1c[nH]c2ccccc12)C(=O)NCCC(=O)N[C@H](CCC(=O)O)C(=O)N[C@H](CCC(=O)O)C(=O)N[C@H](CCC(=O)O)C(=O)N[C@H](CCC(=O)O)C(=O)N[C@H](CCC(=O)O)C(=O)N[C@H](CCC(=O)O)C(=O)N[C@H](CCC(=O)O)C(=O)NCCCCCC(=O)N1CCC[C@H]1C(=O)N[C@@H](CC(C)C)C(=O)NCC(=O)N[C@@H](CC(C)C)C(=O)N[C@@H](C)C(=O)NCC(=O)N[C@H](CCCNC(=N)N)C(=O)N[C@H](CC(C)C)C(=O)NC(C)(C)C(=O)N[C@H](CCCNC(=N)N)C(=O)N[C@H](CCCNC(=N)N)C(=O)N[C@H](CC(C)C)C(=O)NC(C)(C)C(=O)N[C@H](CCCNC(=N)N)C(=O)N[C@H](CC(C)C)C(=O)NC(C)(C)C(=O)N[C@H](CCCNC(=N)N)C(N)=O [e7-Ur11]
cytotoxicity against non-tumourigenic HEK293T (HEK293T): no obvious cytotoxicity | acute toxicity (survival) (nude mice): caused death (one in three survived) | tumour accumulation (in vivo fluorescence imaging) (MDA-MB-231 tumour): significantly higher accumulation in tumours compared to unmodified peptides | uptake in excised tumour (MDA-MB-231 tumour; [3]): higher compared to UK14 and Ur11 | haemolytic activity (mouse red blood cells; [4]): diminished membrane disruption and haemolysis | kidney histology (haematoxylin-eosin staining) (kidney): bleeding was observed at the junction of renal

CC(=O)N[C@H](Cc1c[nH]c2ccccc12)C(=O)NCCC(=O)N[C@H](CCC(=O)O)C(=O)N[C@H](CCC(=O)O)C(=O)N[C@H](CCC(=O)O)C(=O)N[C@H](CCC(=O)O)C(=O)N[C@H](CCC(=O)O)C(=O)N[C@H](CCC(=O)O)C(=O)N[C@H](CCC(=O)O)C(=O)N[C@H](CCC(=O)O)C(=O)NCCCCCC(=O)N1CCC[C@H]1C(=O)N[C@@H](CC(C)C)C(=O)NCC(=O)N[C@@H](CC(C)C)C(=O)N[C@@H](C)C(=O)NCC(=O)N[C@H](CCCCN)C(=O)N[C@H](CC(C)C)C(=O)NC(C)(C)C(=O)N[C@H](CCCCN)C(=O)N[C@H](CC(C)C)C(=O)NC(C)(C)C(=O)N[C@H](CCCCN)C(=O)N[C@H](CCCCN)C(=O)N[C@H](CC(C)C)C(=O)NC(C)(C)C(=O)N[C@H](CCCCN)C(=O)N[C@H](CC(C)C)C(=O)NC(C)(C)C(=O)N[C@H](CCCCN)C(N)=O [e8-Uk14] (Ac-[dW][βAla][dE][dE][dE][dE][dE][dE][dE][dE][Ahx]PLGLAG[dK][dL][Aib][dK][dL][Aib][dK][dK][dL][Aib][dK][dL][Aib][dK]-NH2)
cytotoxicity against non-tumourigenic HEK293T (HEK293T): no obvious cytotoxicity | acute toxicity (survival) (nude mice): no acute toxicity | tumour accumulation (in vivo fluorescence imaging) (MDA-MB-231 tumour): significantly higher accumulation in tumours compared to unmodified peptides | accumulation in kidney (MDA-MB-231 tumour; [3]): lower accumulation in the kidney | accumulation in liver (MDA-MB-231 tumour; [3]): higher accumulation in the liver | uptake in excised tumour (MDA-MB-231 tumour; [3]): higher compared to UK14 and Ur11 | haemolytic activity (mouse red blood cells; [4]): diminished membrane disruption and haemolysis

CC(=O)N[C@H](Cc1c[nH]c2ccccc12)C(=O)NCCC(=O)N[C@H](CCCCN)C(=O)N[C@H](CC(C)C)C(=O)NC(C)(C)C(=O)N[C@H](CCCCN)C(=O)N[C@H](CCCCN)C(=O)N[C@H](CC(C)C)C(=O)NC(C)(C)C(=O)N[C@H](CCCCN)C(=O)N[C@H](CC(C)C)C(=O)NC(C)(C)C(=O)N[C@H](CCCCN)C(N)=O [Uk11] (Ac-[dW][βAla][dK][dL][Aib][dK][dK][dL][Aib][dK][dL][Aib][dK]-NH2)
cytotoxic activity towards MDA-MB-231 cells (in words) (MDA-MB-231 [1]; MTT assay, 24 h treatment): decreased efficiency

CC(=O)N[C@H](Cc1c[nH]c2ccccc12)C(=O)NCCC(=O)N[C@H](CCCNC(=N)N)C(=O)N[C@H](CC(C)C)C(=O)NC(C)(C)C(=O)N[C@H](CCCNC(=N)N)C(=O)N[C@H](CC(C)C)C(=O)NC(C)(C)C(=O)N[C@H](CCCNC(=N)N)C(=O)N[C@H](CCCNC(=N)N)C(=O)N[C@H](CC(C)C)C(=O)NC(C)(C)C(=O)N[C@H](CCCNC(=N)N)C(=O)N[C@H](CC(C)C)C(=O)NC(C)(C)C(=O)N[C@H](CCCNC(=N)N)C(N)=O [Ur14] (Ac-[dW][βAla][dR][dL][Aib][dR][dL][Aib][dR][dR][dL][Aib][dR][dL][Aib][dR]-NH2)
cytotoxic activity towards MDA-MB-231 cells (in words) (MDA-MB-231 [1]; MTT assay, 24 h treatment): no significant improvements

CC(=O)N[C@H](Cc1c[nH]c2ccccc12)C(=O)NCCC(=O)N[C@H](CC(C)C)C(=O)NC(C)(C)C(=O)N[C@H](CCCNC(=N)N)C(=O)N[C@H](CCCNC(=N)N)C(=O)N[C@H](CC(C)C)C(=O)NC(C)(C)C(=O)N[C@H](CCCNC(=N)N)C(=O)N[C@H](CC(C)C)C(=O)NC(C)(C)C(=O)N[C@H](CCCNC(=N)N)C(N)=O [Ur10] (Ac-[dW][βAla][dL][Aib][dR][dR][dL][Aib][dR][dL][Aib][dR]-NH2)
cytotoxic activity towards MDA-MB-231 cells (in words) (MDA-MB-231 [1]; MTT assay, 24 h treatment): greatly diminished activity

CC(=O)N[C@H](Cc1c[nH]c2ccccc12)C(=O)NCCC(=O)N[C@H](CCCNC(=N)N)C(=O)N[C@H](CC(C)C)C(=O)NC(C)(C)C(=O)N[C@H](CCCNC(=N)N)C(=O)N[C@H](CCCNC(=N)N)C(=O)N[C@H](CC(C)C)C(=O)NC(C)(C)C(=O)N[C@H](CCCNC(=N)N)C(=O)N[C@H](CC(C)C)C(=O)NC(C)(C)C(=O)N[C@H](CCCNC(=N)N)C(N)=O [Ur11] (Ac-[dW][βAla][dR][dL][Aib][dR][dR][dL][Aib][dR][dL][Aib][dR]-NH2)
cytotoxic activity towards MDA-MB-231 cells (in words) (MDA-MB-231 [1]): no change in activity | IC50 (MDA-MB-231 [1]; MTT assay, 24 h treatment): 8.9 µM | haemolytic activity (mouse red blood cells): strong haemolytic activity | effect of caspase inhibitor Z-VAD-FMK on cytotoxic effect (MDA-MB-231 [2]): did not block | IC50 (SK-OV-3): 5.1 µM | IC50 (HeLa): 5.9 µM | IC50 (MCF-7): 5.6 µM

CC(=O)N[C@H](Cc1c[nH]c2ccccc12)C(=O)NCCC(=O)N[C@H](CCCCN)C(=O)N[C@H](CC(C)C)C(=O)N[C@H](C)C(=O)N[C@H](CCCCN)C(=O)N[C@H](CC(C)C)C(=O)N[C@H](C)C(=O)N[C@H](CCCCN)C(=O)N[C@H](CCCCN)C(=O)N[C@H](CC(C)C)C(=O)N[C@H](C)C(=O)N[C@H](CCCCN)C(=O)N[C@H](CC(C)C)C(=O)N[C@H](C)C(=O)N[C@H](CCCCN)C(N)=O [ak14]
cytotoxic activity towards MDA-MB-231 cells (in words) (MDA-MB-231 [1]; MTT assay, 24 h treatment): only moderate efficiency | IC50 (MDA-MB-231 [1]; MTT assay, 24 h treatment): > 30 µM

CC(=O)N[C@H](Cc1c[nH]c2ccccc12)C(=O)NCCC(=O)N[C@H](CC(C)C)C(=O)N[C@H](CC(C)C)C(=O)N[C@H](CC(C)C)C(=O)N[C@H](CC(C)C)C(=O)NC(C)(C)C(=O)NC(C)(C)C(=O)NC(C)(C)C(=O)NC(C)(C)C(=O)N[C@H](CCCCN)C(=O)N[C@H](CCCCN)C(=O)N[C@H](CCCCN)C(=O)N[C@H](CCCCN)C(=O)N[C@H](CCCCN)C(=O)N[C@H](CCCCN)C(N)=O [lUk] (Ac-[dW][βAla][dL][dL][dL][dL][Aib][Aib][Aib][Aib][dK][dK][dK][dK][dK][dK]-NH2)
cytotoxic activity towards MDA-MB-231 cells (in words) (MDA-MB-231 [1]; MTT assay, 24 h treatment): decreased efficiency

CC(=O)N[C@H](Cc1c[nH]c2ccccc12)C(=O)NCCC(=O)N[C@H](CCCCN)C(=O)N[C@H](CC(C)C)C(=O)NC(C)(C)C(=O)N[C@H](CCCCN)C(=O)N[C@H](CC(C)C)C(=O)NC(C)(C)C(=O)N[C@H](CCCCN)C(=O)N[C@H](CCCCN)C(=O)N[C@H](CC(C)C)C(=O)NC(C)(C)C(=O)N[C@H](CCCCN)C(=O)N[C@H](CC(C)C)C(=O)NC(C)(C)C(=O)N[C@H](CCCCN)C(N)=O [Uk14] (Ac-[dW][βAla][dK][dL][Aib][dK][dL][Aib][dK][dK][dL][Aib][dK][dL][Aib][dK]-NH2)
IC50 (MDA-MB-231 [1]; MTT assay, 24 h treatment): 4.5 µM | haemolytic activity (mouse red blood cells): strong haemolytic activity | effect of caspase inhibitor Z-VAD-FMK on cytotoxic effect (MDA-MB-231 [2]): did not block | IC50 (SK-OV-3): 5.1 µM | IC50 (HeLa): 4.8 µM | IC50 (MCF-7): 4.7 µM
